# Test results taken from patent publication US20210267978A1, “NANOPARTICLE FORMULATIONS OF IKE AND METHODS OF USE THEREOF” (The Trustees of Columbia University in the City of New York, priority 2018, published 2021).
# What was measured:
# [1] = tested on: SUDHL6 subcutaneous xenografts; test: IKE efficacy study, tumor volume; format: in vivo, NCG mice; conditions: starting from day 9 of treatment
# Description: IKE was dissolved in 5% DMSO/95% HBSS at pH 4 to create a 4 mg/mL solution. 5% DMSO/95% HBSS at pH 4 was used as vehicle 1. IKE PEG-PLGA nanoparticles and unfunctionalized PEG-PLGA nanoparticles (without IKE loading) (vehicle 2) prepared with a NanoAssemblr were dialyzed with deionized water overnight, the water was changed at least twice. Dialyzed IKE-PEG-PLGA nanoparticles and unfunctional PEG-PLGA nanoparticles were concentrated by Amicon Ultra-15 Centrifugal Filter Units to create a solution with 80 mg/mL PEG-PLGA nanoparticles. All above solutions were sterilized by filter through a 0.2 μm syringe filter.
# NCG mice, 6-weeks old, were injected with 10 million SUDHLO-6 cells subcutaneously. […] Tumor volume was measured daily with electronic caliper and calculated using the formula: 0.5×length×width^2. […] Tumor volume change was analyzed in Prism using one-way ANOVA. Tumor tissues were analyzed as described in the RT-qPCR, immunofluorescence, TBARS, and lipidomics sections below.
# We investigated the efficacy of IKE in vivo in male NCG mice bearing SUDHL6 subcutaneous xenografts. […] During the experimental period, mouse weight and tumor volume were measured daily to determine IKE's antitumor effect and possible toxicity. Tumor growth was calculated as the fold change relative to original tumor volume on day 0 before the first dose (FIG. 4C). […]
# [2] = tested on: DOHH 2; test: DLBCL cell line sensitivity to IKE (CellTiter-Glo viability, 24 h); format: cell-based; conditions: Homo sapiens; DOHH 2, 24 hours; read-out: cell line sensitivity to IKE (IC50 class)
# Description: (§1) DLBCL cells were plated at 10,000 cells per well in white 384-well plates (32 μL per well) in technical duplicates and incubated overnight. The cells were then treated with 8 μL medium containing a two-fold dilution series of vehicle (DMSO), IKE (starting from 100 μM) with or without Fer-1 (starting from 200 μM). After 24 h incubation, 40 μL of 50% CellTiter-Glo (Promega) 50% cell culture medium was added to each well and incubated at room temperature with shaking for 15 min. Luminescence was measured using a Victor X5 plate reader (PerkinElmer). All cell viability data were normalized to the DMSO vehicle condition. Experiments were performed three independent times with different passages for each cell line.
# [3] = tested on: SUDHL 10; test: as above; format: cell-based; conditions: Homo sapiens, SU-DHL10; SUDHL 10, 24 hours; read-out: cell line sensitivity to IKE (IC50 class)
# Description: as §1
# [4] = tested on: WSU-NHL; test: as above; format: cell-based
# Description: as §1
# [5] = tested on: SUDHL6 xenograft tumor tissue; test: Immunofluorescence on paraffin-embedded tumor sections after one IKE dose; format: in vivo, NCG mice; conditions: 4 h after one dose of IKE
# Description: NCG mice 6-weeks of age were injected with 10 million SUDHL-6 cells subcutaneously. Visible tumors appeared after 2 weeks. Tumor size was measured by electronic caliper every 2 days and calculated using the formula: 0.5×length×width^2. After another 2 weeks, mice were randomly separated into group of 3 mice per cage with roughly tumor size (1200 mm^3). Mice were dosed at 50 mg/kg IKE, 22 mg/kg IKE, 22 mg/kg IKE PEG-PLGA nanoparticles (equal to 600 mg/kg PEG-PLGA) using IP at one time and samples were collected at 0, 1, 2, 3, 4, 6, and 24 h with three mice per time point. Mice were dosed with Vehicle 1 and Vehicle 2 (600 mg/kg PEG-PLGA) by IP and samples were collected at 24 h. Mice were euthanized using a CO2 gas chamber before xenograft dissection and cardio puncture. Plasma samples were collected and analyzed as described above. […] After drying, the samples were resuspended in 100 μL of methanol and analyzed on the LC-MS with each sample analyzed twice. […] The concentration of IKE in the sample was determined by comparison against a standard curve of IKE in the range of 25 to 2,500 ng/mL. […] Pharmacokinetics parameters of IKE were assessed using Prism fitted with Lognormal of one phase exponential decay. […]
# Tumor tissue was fixed in 4% paraformaldehyde (PFA) for 24 h at 4° C. followed by washing three times with PBS. […] Then the above steps were followed for staining and quantification.
structure (smiles),measurement,setting,value
"CC(C)Oc1ccc(C(=O)Cn2ccnc2)cc1-n1c(CN2CCN(C(=O)COc3ccc(Cl)cc3)CC2)nc2ccccc2c1=O [IKE, Imidazole ketone erastin]",tumor growth (tumor volume fold change vs day 0),[1]; 23 mg/kg i.p. once daily,significant decrease in tumor growth
same,tumor growth (tumor volume fold change vs day 0),[1]; 40 mg/kg i.p. once daily,significant decrease in tumor growth
same,IC50,[2],< 100 nM
same,IC50,[3],< 100 nM
same,cell line sensitivity to IKE (IC50 class),[4],moderately resistant
same,increase of 8-OHdG (fluorescence intensity) relative to vehicle,[5],1.5 fold
same,increase of dihydropyridine-MDA-lysine adducts (fluorescence intensity) relative to vehicle,[5],1.6 fold
